Assay results reported in US20070149519A1, “Benzimidazol substituted thiopene derivatives with activity on ikk3” (priority 2004, published 2007).

molecular target: T1, Recombinant human IKK3 (Homo sapiens, UniProt Q14164); assay: IKK3 TR-FRET kinase assay; format: biochemical; settings: IKK3 15 nM, GST-IκBα 25 nM, ATP 2 μM, 15 minutes at room temperature
T1 construct: FLAG; made in house
T1 sequence (Q14164 1-716): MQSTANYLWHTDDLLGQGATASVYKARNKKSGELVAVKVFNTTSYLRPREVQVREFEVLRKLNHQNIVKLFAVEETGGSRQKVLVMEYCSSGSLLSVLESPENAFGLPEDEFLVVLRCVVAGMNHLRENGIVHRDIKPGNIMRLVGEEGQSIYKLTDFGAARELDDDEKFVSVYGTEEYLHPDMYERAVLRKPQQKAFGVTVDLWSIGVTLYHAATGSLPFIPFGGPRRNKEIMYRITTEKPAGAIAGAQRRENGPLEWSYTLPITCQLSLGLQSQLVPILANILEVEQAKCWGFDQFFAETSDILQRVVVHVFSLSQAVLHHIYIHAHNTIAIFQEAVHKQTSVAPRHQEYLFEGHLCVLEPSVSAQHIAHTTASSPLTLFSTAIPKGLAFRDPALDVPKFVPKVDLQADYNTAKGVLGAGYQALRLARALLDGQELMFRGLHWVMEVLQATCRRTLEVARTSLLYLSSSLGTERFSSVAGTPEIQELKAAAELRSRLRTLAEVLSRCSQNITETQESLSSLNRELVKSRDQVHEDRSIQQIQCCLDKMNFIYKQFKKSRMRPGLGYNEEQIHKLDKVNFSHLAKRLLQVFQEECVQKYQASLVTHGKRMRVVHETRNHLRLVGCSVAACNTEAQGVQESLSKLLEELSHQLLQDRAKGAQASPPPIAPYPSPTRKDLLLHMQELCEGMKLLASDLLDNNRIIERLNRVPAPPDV
Protocol: Recombinant human IKK3 was expressed in baculovirus as a FLAG tagged fusion protein, and its activity was assessed using a time-resolved fluorescence resonance energy transfer (TR-FRET) assay. Briefly, IKK3 (15 nM final) diluted in assay buffer (50 mM HEPES, 10 mM MgCl2, 1 mM CHAPS pH 7.4 with 1 mM DTT and 0.01% w/v BSA) was added to wells containing various concentrations of compound or DMSO vehicle (3% final). The reaction was initiated by the addition of GST-IκBα substrate (25 nM final)/ATP (2 μM final), in a total volume of 30 μl. The reaction was incubated for 15 minutes at room temperature, then terminated by the addition of 15 μl of 50 mM EDTA. Detection reagent (15 μl) in buffer (100 mM HEPES pH 7.4, 150 mM NaCl and 0.1% w/v BSA) containing antiphosphoserine-IκBα-32/36 monoclonal antibody 12C2 (Cell Signalling Technology, Massachusetts, USA) labelled with W-1024 europium chelate (Wallac OY, Turku, Finland), and an APC-labelled anti-GST antibody (Prozyme, San Leandro, Calif., USA) was added and the reaction was further incubated for 45 minutes at room temperature. The degree of phosphorylation of GST-IκBα was measured using a Packard Discovery plate reader (Perkin-Elmer Life Sciences, Pangbourne, UK) as a ratio of specific 665 nm energy transfer signal to reference europium 620 nm signal.

| IC50 [µM] | SMILES |
| --- | --- |
| < 1 | COc1cc2ncn(-c3cc(OCc4ccc(CO)cc4)c(C#N)s3)c2cc1OC [Example 1, 5-[5,6-Bis(methyloxy)-1H-benzimidazol-1-yl]-3-({[4-(hydroxymethyl)phenyl]methyl}oxy)-2-thiophenecarbonitrile] |
| 1 to 10 | COc1cc2ncn(-c3cc(O[C@H](C)c4ccccc4Cl)c(C#N)s3)c2cc1OC [Example 2, 5-[5,6-Bis(methyloxy)-1H-benzimidazol-1-yl]-3-{[(1R)-1-(2-chlorophenyl)ethyl]oxy}-2-thiophenecarbonitrile] |
| < 1 | Cc1ccccc1COc1cc(-n2cnc3ccccc32)sc1C#N [Example 3, 5-(1H-Benzimidazol-1-yl)-3-{[(2-methylphenyl)methyl]oxy}-2-thiophenecarbonitrile] |
| 1 to 10 | N#Cc1sc(-n2cnc3ccccc32)cc1OCc1ccccc1 [Example 4, 5-(1H-Benzimidazol-1-yl)-3-[(phenylmethyl)oxy]-2-thiophenecarbonitrile] |
| < 1 | COc1cc2ncn(-c3cc(OCc4ccccc4C(F)(F)F)c(C#N)s3)c2cc1OC [Example 5, 5-[5,6-Bis(methyloxy)-1H-benzimidazol-1-yl]-3-({[2-(trifluoromethyl)phenyl]methyl}oxy)-2-thiophenecarbonitrile] |
| < 1 | COc1cc2ncn(-c3cc(OCc4ccc5nnn(C)c5c4)c(C#N)s3)c2cc1OC [Example 6, 5-[5,6-bis(methyloxy)-1H-benzimidazol-1-yl]-3-{[(1-methyl-1H-1,2,3-benzotriazol-6-yl)methyl]oxy}-2-thiophenecarbonitrile] |
| < 1 | COc1cc2c(cc1OCCN1CCOCC1)ncn2-c1cc(OCc2ccccc2C(F)(F)F)c(C#N)s1 [Example 7, 5-(6-(Methyloxy)-5-([2-(4-morpholinyl)ethyl]oxy)-1H-benzimidazol-1-yl)-3-({[2-(trifluoromethyl)phenyl]methyl}oxy)-2-thiophene carbonitrile] |
| < 1 | COc1cc2ncn(-c3cc(OCc4cc(F)ccc4F)c(C#N)s3)c2cc1OC [Example 8, 5-[5,6-Bis(methyloxy)-1H-benzimidazol-1-yl]-3-{[(2,5-difluorophenyl)methyl]oxy}-2-thiophenecarbonitrile] |
| < 1 | COc1cc2ncn(-c3cc(OCc4ccccc4S(C)(=O)=O)c(C#N)s3)c2cc1OC [Example 9, 5-[5,6-Bis(methyloxy)-1H-benzimidazol-1-yl]-3-({[2-(methylsulfonyl)phenyl]methyl}oxy)-2-thiophenecarbonitrile] |
| 1 to 10 | N#Cc1sc(-n2cnc3cc(Cl)ccc32)cc1OCc1ccccc1 [Example 10, 5-(5-Chloro-1H-benzimidazol-1-yl)-3-[(phenylmethyl)oxy]-2-thiophenecarbonitrile] |
| < 1 | COc1cc2ncn(-c3cc(OCc4c(F)cccc4F)c(C#N)s3)c2cc1OC [Example 11, 5-[5,6-bis(Methyloxy)-1H-benzimidazol-1-yl]-3-{[(2,6-difluorophenyl)methyl]oxy}-2-thiophenecarbonitrile] |
| < 1 | COc1cc2c(cc1OCCCO)ncn2-c1cc(OCc2ccccc2C(F)(F)F)c(C#N)s1 [Example 12, 5-[5-[(3-Hvdroxypropyl)oxy]-6-(methyloxy)-1H-benzimidazol-1-yl]-3-({[2-(trifluoromethyl)phenyl]methyl}oxy)-2-thiophenecarbonitrile] |
| 1 to 10 | COc1cc2ncn(-c3cc(OCc4ccncc4Br)c(C#N)s3)c2cc1OC [Example 13, 5-[5,6-Bis(methyloxy)-1H-benzimidazol-1-yl]-3-{[(3-bromo-4-pyridinyl)methyl]oxy}-2-thiophenecarbonitrile] |
| < 1 | COc1cc2ncn(-c3cc(OCC4CCCCC4)c(C#N)s3)c2cc1OC [Example 14, 5-[5,6-Bis(methyloxy)-1H-benzimidazol-1-yl]-3-[(cyclohexylmethyl)oxy]-2-thiophenecarbonitrile] |
| < 1 | N#Cc1sc(-n2cnc3cc(C(=O)NCCN4CCOCC4)ccc32)cc1OCc1ccccc1C(F)(F)F [Example 15, 1-[5-cyano-4-({[2-(trifluoromethyl)phenyl]methyl}oxy)-2-thienyl]-N-[2-(4-morpholinyl)ethyl]-1H-benzimidazole-5-carboxamide] |
| 1 to 10 | COc1cc2ncn(-c3cc(O[C@H](C)c4ccccc4C(F)(F)F)c(C#N)s3)c2cc1OC [Example 16, 5-[5,6-Bis(methyloxy)-1H-benzimidazol-1-yl]-3-({(1 R)-1-[2-(trifluoromethyl)phenyl]ethyl}oxy)-2-thiophenecarbonitrile] |
| < 1 | COc1cc2ncn(-c3cc(OCCc4ccccc4)c(C#N)s3)c2cc1OC [Example 17, 5-[5,6-bis(methyloxy)-1H-benzimidazol-1-yl]-3-[(2-phenylethyl)oxy}-2-thiophenecarbonitrile] |
| < 1 | COc1cc2ncn(-c3cc(OCc4ccccc4OC(F)(F)F)c(C#N)s3)c2cc1OC [Example 18, 5-[5,6-bis(methyloxy)-1H-benzimidazol-1-yl]-3-[({2-[(trifluoromethyl)oxy]phenyl}methyl)oxy]-2-thiophenecarbonitrile] |
| 1 to 10 | COc1ccccc1COc1cc(-n2cnc3cc(OC)c(OC)cc32)sc1C#N [Example 19, 5-[5,6-bis(methyloxy)-1H-benzimidazol-1-yl]-3-({[2-(methyloxy)phenyl]methyl}oxy)-2-thiophenecarbonitrile] |
| 1 to 10 | COc1cc2ncn(-c3cc(OCCN4CCOCC4)c(C#N)s3)c2cc1OC [Example 20, 5-[5,6-bis(methyloxy)-1H-benzimidazol-1-yl]-3-{[2-(4-morpholinyl)ethyl]oxy}-2-thiophenecarbonitrile] |
| < 1 | COc1cc2ncn(-c3cc(OCCN4CCCC4=O)c(C#N)s3)c2cc1OC [Example 21, 5-[5,6-bis(methyloxy)-1H-benzimidazol-1-yl]-3-{[2-(2-oxo-1-pyrrolidinyl)ethyl]oxy}-2-thiophenecarbonitrile] |
| 1 to 10 | COc1cc2ncn(-c3cc(OCC4CCCO4)c(C#N)s3)c2cc1OC (stereo not shown) [Example 22, 5-[5,6-bis(methyloxy)-1H-benzimidazol-1-yl]-3-[(tetrahydro-2-furanylmethyl)oxy]-2-thiophenecarbonitrile] |
| < 1 | COc1cc2ncn(-c3cc(OCC4CCCCO4)c(C#N)s3)c2cc1OC (stereo not shown) [Example 23, 5-[5,6-bis(methyloxy)-1H-benzimidazol-1-yl]-3-[(tetrahydro-2 H-pyran-2-ylmethyl)oxy]-2-thiophenecarbonitrile] |
| < 1 | COc1cc2ncn(-c3cc(OCCOc4ccccc4)c(C#N)s3)c2cc1OC [Example 24, 5-[5,6-bis(methyloxy)-1H-benzimidazol-1-yl]-3-{[2-(phenyloxy)ethyl]oxy}-2-thiophenecarbonitrile] |
| < 1 | CCC[C@H](Oc1cc(-n2cnc3cc(OC)c(OC)cc32)sc1C#N)c1ccccc1Cl [Example 25, 5-[5,6-bis(methyloxy)-1H-benzimidazol-1-yl]-3-{[(1S)-1-(2-chlorophenyl)butyl]oxy}-2-thiophenecarbonitrile] |
| < 1 | COc1cc2ncn(-c3cc(OCc4ccsc4)c(C#N)s3)c2cc1OC [Example 26, 5-[5,6-bis(methyloxy)-1H-benzimidazol-1-yl]-3-[(3-thienylmethyl)oxy]-2-thiophenecarbonitrile] |
| < 1 | COc1cc2ncn(-c3cc(OCc4cccs4)c(C#N)s3)c2cc1OC [Example 27, 5-[5,6-bis(methyloxy)-1H-benzimidazol-1-yl]-3-[(2-thienylmethyl)oxy]-2-thiophenecarbonitrile] |
| 1 to 10 | CC[C@@H](C)Oc1cc(-n2cnc3cc(OC)c(OC)cc32)sc1C#N [Example 28, 5-[5,6-bis(methyloxy)-1H-benzimidazol-1-yl]-3-{[(1 R)-1-methylpropyl]oxy}-2-thiophenecarbonitrile] |
